In US8629100B2, “Method of inhibiting clostridium difficile by administration of oritavancin” (The Medicines Company, priority 2007, dated 2014):
Values after ≈ are worked out from the molar mass of the structure shown.

Experiments:
Assay type in all cases: cell-based
[1] = system: C. difficile spores (PCR ribotypes 001, 106 and 027); experiment: Viability (recovery) of spores after antibiotic exposure, cellulose acetate filtration (Examples 3A, 3B)
Procedure: The experiments were in general performed by mixing C. difficile spores with an antibiotic, filtering the solution through cellulose acetate filters to collect the spores, applying the spore-containing filters to nutrient agar, and determining the number of spores remaining on the filters after a selected period of time.
Therefore, the initial experiment included dilution of antimicrobial-containing spore suspensions prior to filtration and washing. Reaction volumes were 1 mL for all antimicrobial/control solutions.
1 mL of control (de-ionised water+/−Tween-80) and test (antimicrobial containing) solutions were inoculated with 10 μL C. difficile spores (3 strains; PCR ribotypes 001, 106 and 027). Spore suspensions (time=1 min or 30 min) were transferred to filtration cupules and the appropriate volume of diluent (sterile de-ionised water+/−Tween-80) was added to achieve the dilution factors noted above. Samples were filtered onto cellulose acetate filters and washed with a further 50 mL of the appropriate diluent. Filters were transferred aseptically to Braziers CCEY agar containing 5 mg/L lysozyme and 2% lysed horse blood. This procedure was completed in duplicate. The culture media were incubated in an anaerobic atmosphere at 37° C. for 48 h and the numbers of C. difficile colonies were recorded.
Diluent was first added to filtration cupules. 1 mL reactions were then added to the appropriate diluent (1 min and 30 min after reaction formation) and filtered onto cellulose acetate filters. The filters were washed with 50 mL of the appropriate diluent. The filters were then transferred aseptically to Braziers CCEY agar containing 5 mg/L lysozyme and 2% lysed horse blood. This procedure was completed in duplicate. Culture media were incubated in an anaerobic atmosphere at 37° C. for 48 h and the numbers of C. difficile colonies recorded

[2] = system: C. difficile PCR ribotype 027 spores; experiment: Phase-contrast microscopy of spore germination/outgrowth; conditions: 10 mg/L for 2 h, washed 3x in PBS
Procedure: C. difficile spores were also exposed to 10 mg/L antimicrobial for 2 h, washed 3× in sterile PBS, re-suspended and inoculated into Brazier's broth medium (pH 7). Samples were removed at 2, 4, 6, 24, 32 and 48 h. Slides were viewed under phase-contrast microscopy and percentages of phase-bright spores, phase-dark spores and vegetative cells were recorded (FIG. 4).
Statistical analyses were performed by transforming percentage data using an Arcsin Transformation and analysed using a Wilcoxon signed rank test. P<0.05 was considered statistically significant. Supra-MIC concentrations of all antimicrobials prevented outgrowth but not germination of C. difficile spores.

[3] = system: C. difficile vegetative cultures and spores; experiment: Spiral gradient endpoint analysis MIC; conditions: data not shown
Procedure: C. difficile PCR ribotypes 001, 106 and 027 were inoculated onto Columbia blood agar and incubated anaerobically (37° C.) for 10 d. Growth was harvested into sterile saline and alcohol shocked in an equal volume of 100% ethanol for 1 h. Alcohol-shocked spore suspensions were mixed by vortexing and sonicated for 5 minutes at room temperature. C. difficile phase-bright (non-germinated) spores were separated from phase-dark (germinated) spores and cellular debris by density gradient centrifugation (4000 rpm 15 minutes) following layering onto 50% (v/v in phosphate buffered saline) Urografin 370 (Schering, Germany). The density gradient centrifugation step was performed twice. Pellets of purified spores were re-suspended in sterile saline (1 mL per 10 Columbia blood agar plates harvested). Percentage phase-bright spores, phase-dark spores and vegetative cells were recorded using phase-contrast microscopy (×100 magnification).
A spiral plater (WASP2, Don Whitley Scientific, UK) was used to apply a logarithmic antibiotic gradient onto the surface of pre-dried (37° C. 20 minutes) Brazier's agar (pH 7). Agar with logarithmic antimicrobial gradients applied to their surface remained at room temperature for 1 h to allow the antimicrobial agent to adsorb into the agar. C. difficile vegetative cultures and spores (˜10^7 cfu/mL) were inoculated onto the agar surface (FIG. 1) with a sterile cotton swab and incubated anaerobically (37° C., 24 h). D-values were measured (in mm) and converted to MICs (Paton, J. H.1990. Int J Exp Clin Chemother. 9, 31-38).

[4] = system: genotypically distinct C. difficile (n = 33); experiment: Broth macrodilution MIC; conditions: Clostridioides difficile, BM, broth macrodilution
[5] = system: genotypically distinct C. difficile (n = 33); experiment: Agar incorporation MIC; conditions: for MIC90 / MIC range / MIC: AI; for MIC: read-out: GEO MIC
Source text: Thirty-three genotypically distinct (by PCR ribotyping) C. difficile isolates were selected from a library of strains at the Leeds General Infirmary (Leeds, UK). Representative isolates of epidemic C. difficile PCR ribotypes 001, 106 and 027 were included in the panel. Control isolates of Staphylococcus aureus ATCC 29213, Enterococcus faecalis ATCC 29212 and Bacteroides fragilis ATCC 25285 were included in all MIC determinations to ensure procedure accuracy.
Agar incorporation MICs were determined based on the method of Freeman and Wilcox (J Antimicrob Chemother 2001; 47: 244-6). Briefly, bacteria were cultured in Schaedler's anaerobic broth (Oxoid, Basingstoke, UK) at 37° C. for 24 h in an anaerobic cabinet (Don Whitley Scientific, Shipley). […] Oritavancin was prepared in 0.002% P80. All antimicrobial solutions were sterilized by filtration through 0.22 um syringe filters. […] Wilkins Chalgren agar (Oxoid) incorporating doubling dilutions of antimicrobial agents (0.03-16 mg/L) was prepared with and without 0.002% P80 and with and without 2% lysed horse blood (E&O Labs, Bonneybridge, UK). All media and diluents were pre-reduced overnight in the anaerobic cabinet. Bacterial cultures were diluted in sterile saline and inoculated onto the surface of agar incorporation agar plates using a multipoint inoculator (˜10^4 cfu). Agar incorporation plates were incubated anaerobically for 48 h. MIC endpoints were read as the lowest concentration of antimicrobial agent where there is no apparent growth (disregarding a visible haze of growth or a single colony).

MICs for C. difficile vegetative cells versus spores [3]: did not differ substantially
MIC90 [4]: 2 µg/mL (≈ 11.7 µM)
MIC ([4]; read-out: GEO MIC): 0.56 µg/mL (≈ 3.27 µM)
MIC90 ([5]; P80 no LHB): 2 µg/mL (≈ 11.7 µM)
MIC range ([5]; P80 no LHB): 0.25 to 2 µg/mL
MIC90 ([5]; no P80 no LHB): 2 µg/mL (≈ 11.7 µM)
MIC range ([5]; no P80 no LHB): 0.25 to 4 µg/mL
MIC90 ([5]; no P80 with LHB): 2 µg/mL (≈ 11.7 µM)
MIC range ([5]; no P80 with LHB): 0.5 to 4 µg/mL
MIC ([5]; Clostridioides difficile, P80 no LHB): 0.55 µg/mL (≈ 3.21 µM)
MIC ([5]; Clostridioides difficile, P80 with LHB): 0.55 µg/mL (≈ 3.21 µM)
MIC90 ([5]; Clostridioides difficile, P80 with LHB, read-out: MIC90): 2 µg/mL (≈ 11.7 µM)
MIC ([5]; Clostridioides difficile, no P80 no LHB): 0.53 µg/mL (≈ 3.1 µM)
MIC ([5]; Clostridioides difficile, no P80 with LHB): 0.69 µg/mL (≈ 4.03 µM)
Agar incorporation geometric mean MICs lower than oritavancin MICs ([5]; all agar conditions): 2- to 5 fold
Agar incorporation geometric mean MICs lower than vancomycin MICs ([5]; all agar conditions): 2- to 3 fold
SMILES: Cc1ncc([N+](=O)[O-])n1CCO [metronidazole]
Recovery of C. difficile spores ([1]; Example 3A: diluent added after reaction solutions, 1 min and 30 min exposure): 90-110 % of controls
Recovery of C. difficile spores ([1]; Example 3B: diluent added to cupules before reaction solutions, 1 min and 30 min): 95-110 % of controls
Outgrowth of C. difficile spores prior-exposed to antimicrobial [2]: not observed
